In patent US20250304582A1, “Bicyclic Ureas As Kinase Inhibitors” (Incyte Corporation, priority 2024, published 2025) one finds IC50 data, which are given here for 9 compounds.

Where only a bound is given, the exact number is not on record here.

Test [1] has as its target T1, pseudo-kinase domain (JH2, amino-acids 536-812) of human Wild Type JAK2 (Homo sapiens, UniProt O60674, F794H/W659A/W777A).
T1 construct: JH2, amino-acids 536-812 with 3 surface mutations W659A, W777A, F794H; His (C); purchased BPS Bioscience 79463; host or cells: baculovirus expression system
Put plainly: JAK2 LanthaScreen JH2-WT Binding Assay. To be noted: 50 nM Fluorescent JAK2-JH2 Tracer, 1 hour at 25° C.; read-out: JH2 BIND WT (EX. B). As to the method: Example B. JAK2 LanthaScreen JH2-WT Binding Assay
(§1) JAK2 JH2-WT binding assay utilizes pseudo-kinase domain (JH2, amino-acids 536-812 with 3 surface mutations W659A, W777A, F794H) of human Wild Type JAK2 expressed as C-terminal His-Avi-tagged, biotinylated protein in a baculovirus expression system (BPS Bioscience, Catalog #79463). The assay was conducted in black 384-well polystyrene plates in a final reaction volume of 20 μL. JAK2 JH2-WT (0.145 nM) was incubated with compounds (100 nL serially diluted in DMSO) in the presence of 50 nM Fluorescent JAK2-JH2 Tracer (MedChem Express Catalog #HY-102055) and 0.25 nM Streptavidin-Tb cryptate (Cisbio Part #610SATLB) in assay buffer (50 mM Tris, pH=7.5, 10 mM MgCl2, 0.01% Brij-35, 0.1% BSA, 1 mM EGTA, 5% Glycerol and 5 mM DTT). Non-specific binding was accessed in the presence of 2 mM ATP. After incubation for 1 hour at 25° C., LanthaScreen signals were read on a PHERAstar FS plate reader (BMG LABTECH). Data was analyzed with IDBS Xlfit and GraphPad Prism 5.0 software using a four parameter dose response curve to determine IC50 for each compound.
(In general: Time-resolved FRET reads energy transfer from a long-lived donor to a nearby acceptor.)

The target of test [2] is T2, catalytic domain (JH1, amino acids 826-1132) of human JAK2 (Homo sapiens, UniProt O60674).
T2 construct: catalytic domain (JH1, amino acids 826-1132) of human JAK2; FLAG (N); purchased Carna Biosciences 08-445-20N; host or cells: baculovirus expression system
T2 sequence (O60674 826-1132): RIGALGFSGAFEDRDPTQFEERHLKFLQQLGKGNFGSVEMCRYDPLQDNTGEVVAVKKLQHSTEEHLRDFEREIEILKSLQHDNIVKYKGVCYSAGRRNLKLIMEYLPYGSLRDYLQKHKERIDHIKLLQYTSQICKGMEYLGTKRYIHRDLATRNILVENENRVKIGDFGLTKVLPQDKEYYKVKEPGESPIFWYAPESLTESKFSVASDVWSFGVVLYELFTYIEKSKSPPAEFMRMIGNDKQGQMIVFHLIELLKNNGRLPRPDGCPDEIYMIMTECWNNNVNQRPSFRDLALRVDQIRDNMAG
Put plainly: JAK2 LanthaScreen JH1 Binding Assay. To be noted: 50 nM fluorescent JAK2-JH1 tracer, 2 hours at 25° C.; read-out: JH1 BIND (EX. A). The method, then: Example A. JAK2 LanthaScreen JH1 Binding Assay
JAK2 JH1 binding assay utilizes catalytic domain (JH1, amino acids 826-1132) of human JAK2 expressed as N-terminal FLAG-tagged, biotinylated protein in a baculovirus expression system (Carna Biosciences, Product #08-445-20N). The assay was conducted in black 384-well polystyrene plates in a final reaction volume of 20 μL. JAK2 JH1 (1.5 nM) was incubated with compounds (100 nL serially diluted in DMSO) in the presence of 50 nM fluorescent JAK2-JH1 tracer and 0.5 nM Streptavidin-Tb cryptate (Cisbio Part #610SATLB) in assay buffer (50 mM Tris, pH=7.5, 10 mM MgCl2, 0.01% Brij-35, 0.1% BSA, 1 mM EGTA, 5% Glycerol and 5 mM DTT). Non-specific binding was accessed in the presence of 2 mM ATP. After incubation for 2 hours at 25° C., LanthaScreen signals were read on a PHERAstar FS plate reader (BMG LABTECH). Data was analyzed with IDBS Xlfit and GraphPad Prism 5.0 software using a four parameter dose response curve to determine IC50 for each compound.

For test [3], the target named is T3, catalytic domain (JH1, amino acids 808-1132) of human JAK2 (Homo sapiens, UniProt O60674).
T3 construct: catalytic domain (JH1, amino acids 808-1132) of human JAK2; His (N); purchased BPS Bioscience 40450; host or cells: baculovirus expression system
T3 sequence (O60674 808-1132): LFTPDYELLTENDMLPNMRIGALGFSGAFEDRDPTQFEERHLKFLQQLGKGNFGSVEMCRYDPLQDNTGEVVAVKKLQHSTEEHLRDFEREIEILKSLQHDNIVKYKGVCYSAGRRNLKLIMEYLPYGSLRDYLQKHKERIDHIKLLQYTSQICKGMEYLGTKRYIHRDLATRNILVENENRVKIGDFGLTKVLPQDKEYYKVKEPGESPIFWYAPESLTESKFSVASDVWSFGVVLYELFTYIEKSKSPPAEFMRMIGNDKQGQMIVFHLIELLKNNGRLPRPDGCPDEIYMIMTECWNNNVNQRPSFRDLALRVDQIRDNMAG
Kind of test: JAK2 HTRF Enzyme Activity Assay. Type of test: biochemical. Conditions: ATP (30 μM or 1 mM; not stated which for the table), 60 minutes at 25° C.; read-out: JAK2 HTRF (Ex. D). As to the method: Example D. JAK2 HTRF Enzyme Activity Assay
JAK2 enzyme activity assays utilize catalytic domain (JH1, amino acids 808-1132) of human JAK2 expressed as N-terminal His-tagged protein in a baculovirus expression system (BPS Bioscience, Catalog #40450). The assays was conducted in black 384-well polystyrene plates in a final reaction volume of 20 μL. JAK2 (0.015 nM) was incubated with compounds (100 nL serially diluted in DMSO) in the presence of ATP (30 μM or 1 mM) and 500 nM Biotin-labeled EQEDEPEGDYFEWLE (SEQ ID NO.: 1) peptide (BioSource International, custom synthesis) in assay buffer (50 mM Tris, pH=7.5, 10 mM MgCl2, 0.01% Brij-35, 0.1% BSA, 1 mM EGTA, 5% Glycerol and 5 mM DTT) for 60 minutes at 25° C. The reactions were stopped by the addition of 10 μL of detection buffer (50 mM Tris, pH 7.8, 0.5 mg/mL BSA, 150 mM NaCl), supplemented with EDTA, LANCE Eu-W1024 anti-phosphotyrosine (PY20), (PerkinElmer, Catalog #AD0067) and Streptavidin SureLight APC (PerkinElmer Catalog #CR130-100), for a final concentration of 15 mM, 1.5 nM and 75 nM, respectively. HTRF signals were read after 30 minutes incubation at room temperature on a PHERAstar FS plate reader (BMG LABTECH). Data was analyzed with TDBS Xlfit and GraphPad Prism 5.0 software using a four parameter dose response curve to determine IC50 for each compound.

For test [4], the target named is T4, pseudo-kinase domain (JH2, amino-acids 536-812) of human V617F mutant JAK2 (Homo sapiens, UniProt O60674, F794H/V617F/W659A/W777A).
T4 construct: JH2, amino-acids 536-812 with 3 surface mutations W659A, W777A, F794H; His (C); purchased BPS Bioscience 79498; host or cells: baculovirus expression system
T4 sequence (O60674 536-812 V617F/W659A/W777A/F794H): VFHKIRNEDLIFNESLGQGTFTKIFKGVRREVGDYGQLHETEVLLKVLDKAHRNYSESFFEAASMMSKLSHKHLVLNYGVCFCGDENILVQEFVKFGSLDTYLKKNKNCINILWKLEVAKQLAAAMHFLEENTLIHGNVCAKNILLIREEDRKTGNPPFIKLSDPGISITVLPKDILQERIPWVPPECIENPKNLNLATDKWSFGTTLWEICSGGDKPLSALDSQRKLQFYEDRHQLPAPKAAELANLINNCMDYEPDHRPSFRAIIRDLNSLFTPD
Put plainly: JAK2 LanthaScreen JH2-V617F Binding Assay. To be noted: 50 nM Fluorescent JAK2-JH2 Tracer, 1 hour at 25° C.; read-out: JH2 BIND V617F (Ex. C). As to the method: Example C. JAK2 LanthaScreen JH2-V617F Binding Assay
as §1, with “JH2-V617F” for “JH2-WT”, “V617F mutant” for “Wild Type”, “#79498).” for “#79463).”, “JH2-V617F (0.26” for “JH2-WT (0.145”

T1 sequence (O60674 536-812 W659A/W777A/F794H): as the sequence (O60674 536-812 V617F/W659A/W777A/F794H) above, with F82V counted along it

As for `[2H]C([2H])([2H])n1c(=O)n([C@@H]2CC[C@@H](NC(=O)OC)C2)c2cc(Nc3cc(C(C)(O)C(F)(F)F)c4cccc(C(F)(F)F)c4n3)ncc21` (stereo partly drawn) [Example 3, Methyl ((1R,3R)-3-(3-(methyl-d3)-2-oxo-6-((4-(1,1,1-trifluoro-2-hydroxypropan-2-yl)-8-(trifluoromethyl)quinolin-2-yl)amino)-2,3-dihydro-1H-imidazo[4,5-c]pyridin-1-yl)cyclopentyl)carbamate], the IC50 was not above 0.01 µM in test [1], more than 1 µM in test [2], more than 1 µM in test [3] and not above 0.01 µM in test [4].
Regarding `[2H]C([2H])([2H])n1c(=O)n([C@@H]2CC[C@@H](NC(=O)OC)C2)c2cc(Nc3cc(C)c4cccc(C(F)(F)F)c4n3)ncc21` [Example 4, Methyl ((1R,3R)-3-(3-(methyl-d3)-6-((4-methyl-8-(trifluoromethyl)quinolin-2-yl)amino)-2-oxo-2,3-dihydro-1H-imidazo[4,5-c]pyridin-1-yl)cyclopentyl)carbamate], the IC50 is not above 0.01 µM in test [1], more than 1 µM in test [2], more than 1 µM in test [3] and not above 0.01 µM in test [4].
With `[2H]C([2H])([2H])n1c(=O)n([C@@H]2CC[C@@H](NC(=O)OC)C2)c2cc(Nc3cc([S+](C)[O-])c4cccc(C(F)(F)F)c4n3)ncc21` (stereo partly drawn) [Example 5, Methyl ((1R,3R)-3-(3-(methyl-d3)-6-((4-(methylsulfinyl)-8-(trifluoromethyl)quinolin-2-yl)amino)-2-oxo-2,3-dihydro-1H-imidazo[4,5-c]pyridin-1-yl)cyclopentyl)carbamate], the IC50 in test [1] was not above 0.01 µM; in test [2] it was more than 1 µM; in test [3] it was more than 1 µM; in test [4], not above 0.01 µM.
Consider `[2H]C([2H])([2H])n1c(=O)n([C@@H]2CC[C@@H](NC(=O)OC)C2)c2cc(Nc3cc(S(C)(=O)=O)c4cccc(C(F)(F)F)c4n3)ncc21` [Example 6, Methyl ((1R,3R)-3-(3-(methyl-d3)-6-((4-(methylsulfonyl)-8-(trifluoromethyl)quinolin-2-yl)amino)-2-oxo-2,3-dihydro-1H-imidazo[4,5-c]pyridin-1-yl)cyclopentyl)carbamate], for which the IC50 in test [1] was not above 0.01 µM; in test [2], more than 1 µM; in test [3], more than 1 µM; in test [4], not above 0.01 µM.
In the case of `[2H]C([2H])([2H])n1c(=O)n([C@@H]2CC[C@@H](NC(=O)OC)C2)c2cc(Nc3cc(S(C)(=N)=O)c4cccc(C(F)(F)F)c4n3)ncc21` (stereo partly drawn) [Example 7, methyl ((1R,3R)-3-(3-(methyl-d3)-6-((4-(S-methylsulfonimidoyl)-8-(trifluoromethyl)quinolin-2-yl)amino)-2-oxo-2,3-dihydro-1H-imidazo[4,5-c]pyridin-1-yl)cyclopentyl)carbamate], the IC50 in test [1] was not above 0.01 µM; in test [2], more than 1 µM; in test [3], more than 1 µM; in test [4], 0.01 to 0.1 µM.
`[2H]C([2H])([2H])n1c(=O)n([C@@H]2CC[C@@H](NC(=O)OCc3ccccc3)C2)c2cc(Nc3ccc4cccc(C(F)(F)F)c4n3)ncc21` [Example 8, Benzyl ((1R,3R)-3-(3-(methyl-d3)-2-oxo-6-((8-(trifluoromethyl)quinolin-2-yl)amino)-2,3-dihydro-1H-imidazo[4,5-c]pyridin-1-yl)cyclopentyl)carbamate]: the IC50 was 0.01 to 0.1 µM in test [1], more than 1 µM in test [2], more than 1 µM in test [3] and 0.01 to 0.1 µM in test [4].
With `[2H]C([2H])([2H])n1c(=O)n([C@@H]2CC[C@@H](NC(=O)OC)C2)c2cc(Nc3cc(C(C)(C)O)c4cccc(C(F)(F)F)c4n3)ncc21` [Example 9, Methyl ((1R,3R)-3-(6-((4-(2-hydroxypropan-2-yl)-8-(trifluoromethyl)quinolin-2-yl)amino)-3-(methyl-d3)-2-oxo-2,3-dihydro-1H-imidazo[4,5-c]pyridin-1-yl)cyclopentyl)carbamate], the IC50 in test [1] is not above 0.01 µM; in test [2] it was more than 1 µM; in test [3] it was more than 1 µM; in test [4] it was not above 0.01 µM.
Take `[2H]C([2H])([2H])n1c(=O)n([C@@H]2CC[C@@H](NC(=O)OC)C2)c2cc(Nc3cc(C(=O)N(C)C(C)C)c4cccc(C(F)(F)F)c4n3)ncc21` [Example 10, Methyl ((1R,3R)-3-(6-((4-(isopropyl(methyl)carbamoyl)-8-(trifluoromethyl)quinolin-2-yl)amino)-3-(methyl-d3)-2-oxo-2,3-dihydro-1H-imidazo[4,5-c]pyridin-1-yl)cyclopentyl)carbamate]: the IC50 in test [1] is not above 0.01 µM; in test [2], more than 1 µM; in test [3], more than 1 µM; in test [4], not above 0.01 µM.
`[2H]C([2H])([2H])n1c(=O)n([C@H]2C[C@H](NC(=O)OC)C2)c2cc(Nc3cc(C(C)(C)O)c4cccc(C(F)(F)F)c4n3)ncc21` [Example 15, Methyl ((trans)-3-(6-((4-(2-hydroxypropan-2-yl)-8-(trifluoromethyl)quinolin-2-yl)amino)-3-(methyl-d3)-2-oxo-2,3-dihydro-1H-imidazo[4,5-c]pyridin-1-yl)cyclobutyl)carbamate]: the IC50 is not above 0.01 µM in test [1], 0.1 to 0.5 µM in test [2], 0.1 to 0.5 µM in test [3] and not above 0.01 µM in test [4].
